Data taken from patent US20040002425A1, “Triketone derivatives and herbicides” (Idemitsu Kosan Co., Ltd., priority 1998, published 2004).

Tested on: Transplanted paddy rice plant
Test: Biological Test 1 (treatment on the 3rd day after transplantation): chemical injury to paddy rice
Assay type: in vivo
Set-up: scale not given here
Settings: Treatment performed 3 days after transplantation
Protocol: (1) Preparation of Herbicide
Talc (57 parts by weight) and bentonite (40 parts by weight), both serving as carriers, and sodium alkylbenzenesulfate (3 parts by weight) serving as a surfactant were homogeneously ground and mixed to thereby obtain a carrier for water-dispersible powder.
Subsequently, to the water-dispersible powder (90 parts by weight), the triketone derivative (compound No. A-1) produced in Example I-1 (10 parts by weight) was added, and the resultant mixture was homogeneously ground and mixed to thereby obtain a herbicide.
(i) Biological Test 1 (Soaking in Water/Treatment on the 3rd Day After Transplantation)
A Wagner pot (1/2000 are) was filled with paddy soil, and seeds of barnyard grass were planted on the surface layer of the soil, and further, rice seedlings grown to the 2.5-leaf stage were transplanted.
Subsequently, water was poured in the pot to a height of 3 cm above the soil surface, and placed in a greenhouse where the temperature was maintained at 20-25° C., to thereby grow the plant under suitable conditions.
On the 3rd day after transplantation, the herbicide prepared in (1) above was applied to the plant in a predetermined amount. On the 30th day after treatment with the herbicide, weed-killing ratio, herbicidal effect, and extent of chemical injury to paddy rice were examined.
In Biological tests 1 and 2, herbicidal effect and extent of chemical injury were evaluated according to the below-described standards.
3) Chemical Injury to Paddy Rice
Chemical injury to paddy rice was evaluated according to the following criteria.

[1] = dose 100 g/ha, examined on the 30th day after treatment
[2] = dose 200 g/ha, examined on the 30th day after treatment

| Compound | Chemical injury, Transplanted paddy rice plant [1] | Chemical injury, Transplanted paddy rice plant [2] | Chemical injury, Transplanted paddy rice plant (dose 100 g/ha) | Chemical injury, Transplanted paddy rice plant (dose 200 g/ha) |
| --- | --- | --- | --- | --- |
| O=C1CCCC(O)=C1C(=O)c1cccc2c1OCCO2 [Comparative Example I-2, reference compound] | 0 | 0 | – | – |
| O=C1CCCC(O)=C1C(=O)c1ccc2c(c1Cl)CCS2(=O)=O [A-1, 4-chloro-5-(1,3-dioxocyclohexan-2-yl)carbonyl-2,3-dihydrobenzothiophene-1,1-dioxide] | 0 | 0 | – | – |
| COC(=O)c1ccccc1S(=O)(=O)C1=C(C(=O)c2ccc3c(c2Cl)CCS3(=O)=O)C(=O)CCC1 [B-44] | – | – | 0 | 0 |
| O=C1CCCC(S(=O)(=O)c2ccc(O)cc2)=C1C(=O)c1ccc2c(c1Cl)CCS2(=O)=O [B-43] | – | – | 0 | 0 |
| CC1CC(=O)C(C(=O)c2ccc3c(c2Cl)CCS3(=O)=O)=C(O)C1 (stereo not shown) [A-12, 4-chloro-5-(5-methyl-1,3-dioxocyclohexan-2-yl)carbonyl-2,3-dihydrobenzothiophene-1,1-dioxide] | 1 | 2 | – | – |
| CCCS(=O)(=O)C1=C(C(=O)c2ccc3c(c2Cl)CCS3(=O)=O)C(=O)CCC1 [B-28] | – | – | 0 | 0 |
| CN(C)C1=C(C(=O)c2ccc3c(c2Cl)CCS3(=O)=O)C(=O)CCC1 [B-13] | – | – | 0 | 0 |
| COc1c(C(=O)C2=C(O)CCCC2=O)ccc2c1CC(C)S2(=O)=O (stereo not shown) [A-18, 4-methoxy-2-methyl-5-(1,3-dioxocyclohexan-2-yl)carbonyl-2,3-dihydrobenzothiophene-1,1-dioxide] | 0 | 1 | – | – |
| Cc1cccc(S(=O)(=O)C2=C(C(=O)c3ccc4c(c3Cl)CCS4(=O)=O)C(=O)CCC2)c1 [B-33] | – | – | 0 | 0 |
| Cc1cc(C(=O)C2=C(O)CCCC2=O)c(C)c2c1S(=O)(=O)CC2C (stereo not shown) [Comparative Example I-3, reference compound] | 3 | 4 | – | – |
| CC1(C)CC(=O)C(C(=O)c2ccc3c(c2Cl)CCS3(=O)=O)=C(O)C1 [A-9, 4-chloro-5-(5,5-dimethyl-1,3-dioxocyclohexan-2-yl)carbonyl-2,3-dihydrobenzothiophene-1,1-dioxide] | 1 | 3 | – | – |
| CC1CC(O)=C(C(=O)c2ccc3c(c2Cl)CCS3(=O)=O)C(=O)C1C (stereo not shown) [A-16, 4-chloro-5-(4,5-dimethyl-1,3-dioxocyclohexan-2-yl)carbonyl-2,3-dihydrobenzothiophene-1,1-dioxide] | 1 | 3 | – | – |
| CO/N=C1\CCS(=O)(=O)c2ccc(C(=O)C3=C(SC)CCCC3=O)c(C)c21 [B-73] | – | – | 0 | 0 |
| Cc1ccc(S(=O)(=O)C2=C(C(=O)c3ccc4c(c3Cl)CCS4(=O)=O)C(=O)CCC2)cc1 [B-34] | – | – | 0 | 0 |
| CC(C)(C)S(=O)(=O)C1=C(C(=O)c2ccc3c(c2Cl)CCS3(=O)=O)C(=O)CCC1 [B-39] | – | – | 0 | 0 |
| Cc1cc(C(=O)C2=C(O)CCCC2=O)c(Cl)c2c1S(=O)(=O)CC2 [A-3, 4-chloro-7-methyl-5-(1,3-dioxocyclohexan-2-yl) carbonyl-2,3-dihydrobenzothiophene-1,1-dioxide] | 1 | 3 | – | – |

| Compound | Chemical injury, Transplanted paddy rice plant [1] | Chemical injury, Transplanted paddy rice plant [2] | Chemical injury, Transplanted paddy rice plant (dose 100 g/ha) | Chemical injury, Transplanted paddy rice plant (dose 200 g/ha) |
| --- | --- | --- | --- | --- |
| N#Cc1c(C(=O)C2C(=O)CCCC2=O)ccc2c1CCS2(=O)=O [A-21, 4-cyano-5-(1,3-dioxocyclohexan-2-yl)carbonyl-2,3-dihydrobenzothiophene-1,1-dioxide] | 0 | 0 | – | – |
| Cc1cc(C(=O)C2=C(Cl)CCCC2=O)c(Cl)c2c1S(=O)(=O)CC2 [B-4] | – | – | 1 | 2 |
| O=C1CCCC(O)=C1C(=O)c1cc2c(cc1[N+](=O)[O-])OCO2 [Comparative Example I-1, reference compound] | 3 | 4 | – | – |
| O=C1CCCC(Sc2ccccc2)=C1C(=O)c1ccc2c(c1Cl)CCCS2(=O)=O [B-78] | – | – | 0 | 0 |
| O=C1CCCC(Cl)=C1C(=O)c1ccc2c(c1Cl)CCCS2(=O)=O [B-77] | – | – | 0 | 0 |
| Cc1c(C(=O)C2=C(S(=O)(=O)c3ccc(Cl)cc3)CCCC2=O)ccc2c1C(=O)C(C)(C)CS2(=O)=O [B-65] | – | – | 3 | 4 |
| Cc1cc(C(=O)C2=C(S(C)(=O)=O)CCCC2=O)c(C)c2c1S(=O)(=O)CCC2OC(C)C (stereo not shown) [B-69] | – | – | 0 | 1 |
| CCSC1=C(C(=O)c2ccc3c(c2Cl)CCS3(=O)=O)C(=O)CCC1 [B-2] | – | – | 0 | 0 |
| C=CCS(=O)(=O)C1=C(C(=O)c2ccc3c(c2Cl)CCS3(=O)=O)C(=O)CCC1 [B-38, 4-chloro-5-[3-(3-propenyl)sulfonyl-1-oxocyclohexan-2-yl]carbonyl-2,3-dihydrobenzothiophene-1,1-dioxide] | – | – | 0 | 0 |
| CCCSC1=C(C(=O)c2ccc3c(c2Cl)CCS3(=O)=O)C(=O)CCC1 [B-8, 4-chloro-5-[3-(3-propyl)thio-1-oxocyclohexan-2-yl]carbonyl-2,3-dihydrobenzothiophene-1,1-dioxide] | – | – | 0 | 0 |
| CC(C)c1ccccc1S(=O)(=O)C1=C(C(=O)c2ccc3c(c2Cl)CCS3(=O)=O)C(=O)CCC1 [B-36] | – | – | 0 | 0 |
| CCCSC1=C(C(=O)c2cc(C)c3c(c2C)/C(=N/OC)CCS3(=O)=O)C(=O)CCC1 [B-61, 4-methoxyimino-5,8-dimethyl-6-[3-(3-propyl)thio-1-oxocyclohexan-2-yl)carbonylthiochroman-1,1-1,1-dioxide] | – | – | 0 | 0 |
| O=C1CCCC(Sc2ccccc2O)=C1C(=O)c1ccc2c(c1Cl)CCS2(=O)=O [B-48] | – | – | 0 | 0 |
| O=C1CCCC(Br)=C1C(=O)c1ccc2c(c1Cl)CCS2(=O)=O [B-6] | – | – | 0 | 0 |
| CC1CC(C)(C)C(=O)C(C(=O)c2ccc3c(c2Cl)CCS3(=O)=O)=C1O (stereo not shown) [A-13, 4-chloro-5-(4,4,6-trimethyl-1,3-dioxocyclohexan-2-yl)carbonyl-2,3-dihydrobenzothiophene-1,1-dioxide] | 1 | 3 | – | – |
| COCCOC1=C(C(=O)c2ccc3c(c2Cl)CCS3(=O)=O)C(=O)CCC1 [B-53] | – | – | 0 | 0 |
